# Source: patent publication US20260207654A1, “HEPARAN SULFATE AND ITS MIMETICS AS CHEMOKINE INHIBITORS” (INDIAN INSTITUTE OF SCIENCE EDUCATION AND RESEARCH, priority 2021, published 2026)
# Assays:
# Test in all cases: Chemokine glycan microarray binding assay
# Settings in all cases: maximum RFU set as 100% binding, average across 2 glycan concentrations and 3 chemokine dilutions (n=6)
# CCL13 = CCL13 (Homo sapiens, UniProt Q99616)
# Procedure: (§1) Microarray Studies: The compounds of the present invention were covalently immobilized on epoxy group collated glass slides. Slides were rehydrated with dH2O and incubated for 30 min in a staining dish with 50° C. prewarmed ethanolamine (0.05 M) in Tris-HCl (0.1 M, pH 9.0) to block the remaining reactive epoxy groups on the slide surface, then washed with 50° C. prewarmed dH2O. Slides were centrifuged at 200 g for 3 min, then fitted with the ProPlate Multi-Array 16-well slide module (Grace Bio-lab P37001) to divide into the subarrays (blocks). Slides were washed with PBST (0.1% Tween 20), aspirated, and blocked with 200 μL/subarray of blocking buffer (PBS pH 7.3+1% w/v ovalbumin) for 1 h at RT with gentle shaking. Next, the blocking solution was aspirated and 100 μL/block of primary chemokines diluted in PBS pH 7.3+1% w/v ovalbumin were incubated with gentle shaking for 2 hours at RT. Slides were washed 4 times with PBST, then with PBS (without Tween-20) for 2 min. Bound antibodies were detected by incubating with biotinylated secondary detections (1 ng/μL) diluted in PBS, 200 μL/block at RT for 1 h. Slides were washed 4 times with PBST, then with PBS (without Tween-20) for 2 min and biotinylated antibodies were detected with Cy3-SA ([…]). Slides were washed 4 times with PBST, then with PBS for 10 min followed by removal from the ProPlate Multi-Array slide module and immediately dipping in a staining dish with dH2O for 10 min with shaking. The slides were then centrifuged at 200 g for 3 min, and the dry slides immediately scanned. Binding was tested at three serial dilutions, then detected with the relevant biotinylated secondary antibody (1 μg/mL) followed by Cy3-strepavidin (1.5 μg/mL). Arrays were scanned and RFUs were calculated of chemokines binding to 100 μM glycans printed at four replicates. Rank binding of chemokines (each at three dilutions) to glycans printed at four replicates each was calculated and summarized in Table 1. For each binding assay per printed block, the maximum RFU was determined and set as 100% binding. Then, binding to all other glycans in the same block was ranked in comparison to the maximal binding, and average rank binding (and SEM) for each glycan across the three examined concentrations of each chemokine was calculated. This analysis allowed to compare the glycan-binding profiles of the different chemokines and dissect their binding preferences.
# (§2) Table 1. Chemokine glycan microarray binding assay. Binding was tested at 3 serial dilutions, then detected with the relevant biotinylated secondary antibody (1 μg/ml) followed by Cy3-Strepavidin (1.5 μg/ml) (Table SX). Arrays were scanned, relative fluorescent units (RFU) obtained, and maximum RFU determined and set as 100% binding. Then rank binding (per printed glycan per concentration, per each chemokine dilution, per printed block) was determined. Since each glycans was printed at 2 concentration, 100% binding was set separately for each concentration. Then, binding to all the other glycans at the same concentration was ranked in comparison to the maximal binding, and the average rank binding and SEM for each glycan across the two glycan concentrations and three examined dilutions of each chemokine was calculated (n=6, 2 glycan concentrations across 3 chemokine dilutions). This analysis allowed to compare the glycan binding profiles of the different chemokines and dissect their binding preferences. The mean rank is shown as a heatmap of all the examined binding assays together (red highest, blue lowest and white 50th percentile of ranking).
# CCL2 = CCL2 (Homo sapiens, UniProt P13500)
# Procedure: as §1, §2
# CCL7 = CCL7 (Homo sapiens, UniProt P80098)
# Procedure: as §1, §2
# CXCL10 = target: T1, CXCL10 (Homo sapiens, UniProt P02778)
# T1 sequence (P02778 22-98): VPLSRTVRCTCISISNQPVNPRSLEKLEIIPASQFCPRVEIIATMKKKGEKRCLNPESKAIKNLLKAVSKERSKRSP
# Procedure: as §1, §2
# CCL28 = target: T2, CCL28 (Homo sapiens, UniProt Q9NRJ3)
# T2 sequence (Q9NRJ3 20-127): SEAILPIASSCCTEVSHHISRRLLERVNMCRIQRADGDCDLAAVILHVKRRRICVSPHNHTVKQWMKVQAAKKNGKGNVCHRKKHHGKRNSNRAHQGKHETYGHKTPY
# Procedure: as §1, §2
# CXCL12 = CXCL12 (Homo sapiens, UniProt P48061)
# Procedure: as §1, §2
# CXCL8 = target: T3, CXCL8 (Homo sapiens, UniProt P10145)
# T3 sequence (P10145 21-99): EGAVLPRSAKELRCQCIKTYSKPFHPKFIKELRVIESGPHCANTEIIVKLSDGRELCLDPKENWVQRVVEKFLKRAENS
# Procedure: as §1, §2
# CCL5 = target: T4, CCL5 (Homo sapiens, UniProt P13501)
# T4 sequence (P13501 24-91): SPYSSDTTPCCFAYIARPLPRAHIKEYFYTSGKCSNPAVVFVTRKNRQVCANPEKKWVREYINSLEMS
# Procedure: as §1, §2
# CCL21 = target: T5, CCL21 (Homo sapiens, UniProt O00585)
# T5 sequence (O00585 24-134): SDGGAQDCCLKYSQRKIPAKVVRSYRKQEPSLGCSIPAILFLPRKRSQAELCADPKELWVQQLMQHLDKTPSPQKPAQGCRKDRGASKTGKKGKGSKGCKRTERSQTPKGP
# Procedure: as §1, §2
# Sequence of CCL7 (P80098 24-99, species assumed): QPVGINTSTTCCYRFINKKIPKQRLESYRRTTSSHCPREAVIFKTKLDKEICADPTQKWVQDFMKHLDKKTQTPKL
# Sequence of CXCL12 (P48061 22-93, species assumed): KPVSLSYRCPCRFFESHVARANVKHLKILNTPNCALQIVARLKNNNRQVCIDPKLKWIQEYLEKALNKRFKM
# Sequence of CCL2 (P13500 24-99, species assumed): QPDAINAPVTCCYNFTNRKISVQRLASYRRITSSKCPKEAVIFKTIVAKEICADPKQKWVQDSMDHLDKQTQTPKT
# Sequence of CCL13 (Q99616 17-98, species assumed): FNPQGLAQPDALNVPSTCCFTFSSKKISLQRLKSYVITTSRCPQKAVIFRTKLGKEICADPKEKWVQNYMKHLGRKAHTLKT
Compound,mean rank binding to CCL13 (CCL13),mean rank binding to CCL2 (CCL2),mean rank binding to CCL7 (CCL7),mean rank binding to CXCL10 (CXCL10),mean rank binding to CCL28 (CCL28),mean rank binding to CXCL12 (CXCL12),mean rank binding to CXCL8 (CXCL8),mean rank binding to CCL5 (CCL5),mean rank binding to CCL21 (CCL21)
3-Aminopropyl-O-[(2-amino-2-deoxy-α-D-glucopyranosyl)-(1→4)-O-(2-O-sulfonato-α-L-idopyranosyluronate)-(1→4)-O-(2-amino-2-deoxy-α-D-glucopyranosyl)]-(1→4)-O-2-O-sulfonato-α-L-idopyranosiduronate [Example 13],70%,13%,56%,52%,43%,69%,37%,31%,69%
"NCCOCCO[C@@H]1OC(C(=O)O)[C@@H](O)C(O)C1O (stereo partly drawn) [Example 1, Ethaoxy-2-aminoethoxyl-O-α-L-idopyranoside Uronic Acid]",74%,4%,30%,47%,46%,62%,17%,2%,52%
"NCCOCCO[C@@H]1O[C@@H](C(=O)O)[C@@H](OS(=O)(=O)O)[C@H](O)[C@H]1O [Example 2, Ethoxy-2-aminoethoxyl-O-(4-O-sulfonato)-α-L-idopyranoside Uronic Acid]",82%,2%,30%,45%,58%,66%,12%,2%,63%
"NCCOCCO[C@@H]1O[C@@H](C(=O)O)[C@@H](OS(=O)(=O)O)[C@H](O)[C@H]1OS(=O)(=O)O [Example 3, Ethoxy-2-aminoethoxyl-O-(2,4-O-disulfonato)-α-L-idopyranoside Uronic Acid]",69%,0%,17%,24%,72%,38%,5%,1%,46%
"NCCOCCO[C@@H]1OC(C(=O)O)[C@@H](O[C@@H]2OC(C(=O)O)[C@@H](O)C(O)C2O)C(O)C1O (stereo partly drawn) [Example 4, Ethoxy-2-aminoethoxyl-O-(α-L-idopyranosyl Uronic Acid-α(1→4))-α-L-idopyranosyl Uronic Acid]",67%,2%,33%,44%,56%,56%,12%,2%,48%
"NCCOCCO[C@@H]1O[C@@H](C(=O)O)[C@@H](O[C@@H]2O[C@@H](C(=O)O)[C@@H](OS(=O)(=O)O)[C@H](O)[C@H]2O)[C@H](O)[C@H]1O [Example 5, Ethoxy-2-aminoethoxyl-O-((4-O-sulfonato)-α-L-idopyranosyl Uronic Acid-α(1→4))-α-L-idopyranoside Uronic Acid]",81%,23%,58%,57%,80%,64%,62%,15%,62%
"NCCOCCO[C@@H]1O[C@@H](C(=O)O)[C@@H](O[C@@H]2O[C@@H](C(=O)O)[C@@H](OS(=O)(=O)O)[C@H](O)[C@H]2OS(=O)(=O)O)[C@H](O)[C@H]1OS(=O)(=O)O [Example 6, Ethoxy-2-aminoethoxyl-O-((2,4-O-disulfonato)-α-L-idopyranosyl Uronic Acid-α(1→4)(2-sulfonato))-α-L-idopyroside Uronic Acid]",94%,25%,55%,67%,84%,79%,73%,38%,71%
"NCCOCCO[C@@H]1OC(C(=O)O)[C@@H](O[C@@H]2OC(C(=O)O)[C@@H](O[C@@H]3OC(C(=O)O)[C@@H](O)C(O)C3O)C(O)C2O)C(O)C1O (stereo partly drawn) [Example 7, Ethoxy-2-aminoethoxyl-O-(α-L-idopyranosyl Uronic Acid-α(1→4)-α-L-idopyranosyl Uronic Acid-α(1→4))-α-L-idopyranoside Uronic Acid]",86%,36%,75%,78%,80%,92%,63%,30%,83%
"NCCOCCO[C@@H]1O[C@@H](C(=O)O)[C@@H](O[C@@H]2O[C@@H](C(=O)O)[C@@H](O[C@@H]3O[C@@H](C(=O)O)[C@@H](OS(=O)(=O)O)[C@H](O)[C@H]3O)[C@H](O)[C@H]2O)[C@H](O)[C@H]1O [Example 8, Ethoxy-2-aminoethoxyl-O-((4-O-sulfonato)-α-L-idopyranosyl Uronic Acid-α(1→4)-L-idopyranosyl Uronic Acid-α(1→4))-α-L-idopyranoside Uronic Acid]",72%,0%,12%,23%,54%,45%,13%,10%,60%
"NCCOCCO[C@@H]1O[C@@H](C(=O)O)[C@@H](O[C@@H]2O[C@@H](C(=O)O)[C@@H](O[C@@H]3O[C@@H](C(=O)O)[C@@H](OS(=O)(=O)O)[C@H](O)[C@H]3OS(=O)(=O)O)[C@H](O)[C@H]2OS(=O)(=O)O)[C@H](O)[C@H]1OS(=O)(=O)O [Example 9, Ethoxy-2-aminoethoxyl-O-(2,4-O-disulfonato)-α-L-idopyranosyl Uronic Acid-α(1→4)(2-O-sulfonato)-α-L-idopyranosyl uronic acid-α(1→4)(2-O-sulfonato)-α-L-idopyranoside Uronic Acid]",53%,66%,94%,82%,51%,75%,71%,75%,79%
